Measurements reported in patent publication US20210009583A1, “DEUTERATED IMIDAZOPYRIDINES” (UNIVERSITY OF NOTRE DAME DU LAC, priority 2018, published 2021).
“And” between values parts separate entries of the source, which are not always exact repeats. Equal entries are not always repeated. “Also recorded” adds a separate entry of the source. Where two headings read alike, the source gives them in different places.

Assays:
[1] = Single dose pharmacokinetic study after oral administration, with and without ABT pre-dosing; assay type: in vivo, female Balb/c mice
Protocol: Based on MIC and acute toxicity data, two compounds ND-011176 and a deuterated analog ND-012101 were selected for evaluation in a single dose pharmacokinetic study (with and without pre-dosing of 1-Aminobenzotriazole, ABT) after oral administration to female Balb/c mice.
All animals were administered with the prepared test article via oral gavage at a target dose level of 200 mg/kg and at the dose volume detailed in the table 1 below. Each animal in Groups 2, 4, 6, 8 and 10 received a dose of ABT (100 mg/kg) via oral gavage two hours prior to Test Article administration.
Whole blood samples (0.1 mL each) were collected at the first time point via submandibular vein (SMV), or an appropriate peripheral vein if it was necessary. Up to 0.5 mL of whole blood was collected at terminal blood collection via intra cardiac puncture (ICP). For animals 1-3 from each of the 10 Groups, blood samples were collected at 0.5 and 4 hours after oral dosing. […]
The plasma samples and dose formulation samples were analyzed by the Testing Facility to determine the concentration of the test article using LC-MS/MS. PK parameters were estimated from the plasma concentration-time data by standard non-compartmental methods utilizing suitable analysis software.

[2] = Body weight at gross necropsy after 4 weeks of treatment (chronic model); assay type: in vivo, Balb/c mouse; conditions: individual mice
Protocol: When evaluated in the “Chronic Balb/c mouse model” of M. tuberculosis infection by the method of Lenaerts, A. J., et. al. 2005. Preclinical testing of the nitroimidazopyran PA-824 for activity against M. tuberculosis in a series of in vitro and in vivo models. AAC. 49(6):2294-301. ND-012101 at 200 mg/kg and ND-012101(100 mg/kg)+ABT (100 mg/kg) both achieved 100% mouse survival after 4 weeks of oral dosing.

M. tuberculosis = test: Chronic Balb/c mouse model of M. tuberculosis infection; assay type: in vivo; conditions: for CFU drop (bacteriostatic activity) / Mouse survival: 4 weeks of oral dosing; for Spleen, gross necropsy observation: after 4 weeks of treatment, individual mice; for Lung Log10 CFU ± SEM / Spleen Log10 CFU ± SEM / Log reduction vs CTL (Lg) / Log reduction vs CTL (Sp): 4 Week Treatment; for Log reduction vs CTL (Lg): lung; for Log reduction vs CTL (Sp): spleen
[3] = 5 h (mean of the "8" and "12" TP samples taken before euthanasia), PO 200 mg/kg + 100 mg/kg ABT
[4] = female, Balb/c, mouse, in vivo, po, 200 mg/kg
[5] = mouse, in vivo, female Balb/c mice, single oral dose 200 mg/kg, no ABT

Compound: [2H]c1c(C([2H])([2H])[2H])c([2H])n2c(C(=O)NCc3ccc(C(F)(F)F)cc3)c(C)nc2c1[2H] [ND-012101]
- Drug plasma concentration, individual mice ([1]; 0.5 h, PO 200 mg/kg + 100 mg/kg ABT): 22700 ng/mL and 19100 ng/mL
- Drug plasma concentration, individual mice ([1]; 0.5 h, PO 200 mg/kg, no ABT, 200 mg/kg): 23100 ng/mL and 19900 ng/mL
- Drug plasma concentration, individual mice ([1]; 2 h, PO 200 mg/kg + 100 mg/kg ABT): 37700 ng/mL and 35500 ng/mL
- Drug plasma concentration, individual mice ([1]; 2 h, PO 200 mg/kg, no ABT, 200 mg/kg): 7900 ng/mL and 3080 ng/mL and 4590 ng/mL
- Drug plasma concentration, individual mice ([1]; 4 h, PO 200 mg/kg + 100 mg/kg ABT): 47200 ng/mL and 35000 ng/mL
- Drug plasma concentration, individual mice ([1]; 4 h, PO 200 mg/kg, no ABT, 200 mg/kg): 1350 ng/mL and 3490 ng/mL and 966 ng/mL
- Drug plasma concentration, Average [1, 3]: 50017^^ ng/mL
- Drug plasma concentration, individual mice [1, 3]: 49100^^ ng/mL and 47600^^ ng/mL and 53350^^ ng/mL
- Drug plasma concentration, individual mice ([1]; 8 h, PO 200 mg/kg, no ABT, 200 mg/kg): 67.6 ng/mL and 22.3 ng/mL and 100 ng/mL
- Drug plasma concentration, individual mice ([1]; 12 h, PO 200 mg/kg, no ABT, 200 mg/kg): 2.10 ng/mL and 1.19 ng/mL
- Drug plasma concentration, individual mice ([1]; 24 h, PO 200 mg/kg, no ABT): BQL
- % AUC Extrap ([1]; female Balb/c mice, single oral dose 200 mg/kg, no ABT): 0.00%
- concentration at 0.5 h ([1]; female, Balb/c, mouse, in vivo, 0.5 h, PO 200 mg/kg + 100 mg/kg ABT, read-out: Drug plasma concentration, Average): 21700 ng/mL
- concentration at 0.5 h ([1]; female, Balb/c, mouse, in vivo, 0.5 h, PO 200 mg/kg + 100 mg/kg ABT, read-out: Drug plasma concentration, individual mice): 23300 ng/mL
- concentration at 2 h ([1]; female, Balb/c, mouse, in vivo, 2 h, PO 200 mg/kg + 100 mg/kg ABT, read-out: Drug plasma concentration, Average): 34300 ng/mL
- concentration at 2 h ([1]; female, Balb/c, mouse, in vivo, 2 h, PO 200 mg/kg + 100 mg/kg ABT, read-out: Drug plasma concentration, individual mice): 29800 ng/mL
- concentration at 4 h ([1]; female, Balb/c, mouse, in vivo, 4 h, PO 200 mg/kg + 100 mg/kg ABT, read-out: Drug plasma concentration, Average): 43500 ng/mL
- concentration at 4 h ([1]; female, Balb/c, mouse, in vivo, 4 h, PO 200 mg/kg + 100 mg/kg ABT, read-out: Drug plasma concentration, individual mice): 48200 ng/mL
- AUC(0-x)/Dose [1, 4]: 125 ng·h/mL/mg/kg
- AUC(0-∞)/Dose [1, 4]: 125 ng·h/mL/mg/kg
- Cmax/Dose [1, 4]: 96 ng/mL/mg/kg
- concentration at 0.5 h ([1]; female, Balb/c, mouse, in vivo, po, 200 mg/kg, 0.5 h, PO 200 mg/kg, no ABT, read-out: Drug plasma concentration, Average): 19200 ng/mL
- concentration at 0.5 h ([1]; female, Balb/c, mouse, in vivo, po, 200 mg/kg, 0.5 h, PO 200 mg/kg, no ABT, read-out: Drug plasma concentration, individual mice): 14700 ng/mL
- concentration at 2 h ([1]; female, Balb/c, mouse, in vivo, po, 200 mg/kg, 2 h, PO 200 mg/kg, no ABT, read-out: Drug plasma concentration, Average): 5190 ng/mL
- concentration at 4 h ([1]; female, Balb/c, mouse, in vivo, po, 200 mg/kg, 4 h, PO 200 mg/kg, no ABT, read-out: Drug plasma concentration, Average): 1940 ng/mL
- concentration at 8 h ([1]; female, Balb/c, mouse, in vivo, po, 200 mg/kg, 8 h, PO 200 mg/kg, no ABT, read-out: Drug plasma concentration, Average): 63 ng/mL
- concentration at 12 h ([1]; female, Balb/c, mouse, in vivo, po, 200 mg/kg, 12 h, PO 200 mg/kg, no ABT, read-out: Drug plasma concentration, Average): 2 ng/mL
- concentration at 12 h ([1]; female, Balb/c, mouse, in vivo, po, 200 mg/kg, 12 h, PO 200 mg/kg, no ABT, read-out: Drug plasma concentration, individual mice): 2 ng/mL
- Cmax ([1]; mouse, in vivo, female Balb/c mice, single oral dose 200 mg/kg, ABT 100 mg/kg PO 2 h before, manually added from the TA concentration data): 48400 ng/mL
- AUC(0-inf) [1, 5]: 25000 ng·h/mL
- Cmax [1, 5]: 19200 ng/mL
- Tmax [1, 5]: 60 min
- half-life [1, 5]: 47.4 min
- AUC ([1]; mouse, in vivo, female Balb/c mice, single oral dose 200 mg/kg, no ABT, read-out: AUC(0-x)): 25000 ng·h/mL
- Weight ([2]; Group 3, ND-012101 + ABT): 20.4 (2×) and 20.8 and 20.0 and 20.5 and 18.6
- Weight ([2]; Group 6, ND-012101 alone): 21.5 (2×) and 20.7 and 20.3 and 19.9 and 20.8
- CFU drop (bacteriostatic activity) (M. tuberculosis; 100 mg/kg + ABT 100 mg/kg): < 1 log CFU
- Mouse survival (M. tuberculosis; 100 mg/kg + ABT 100 mg/kg): 100%
- CFU drop (bacteriostatic activity) (M. tuberculosis; 200 mg/kg): < 1 log CFU
- Mouse survival (M. tuberculosis; 200 mg/kg): 100%
- Spleen, gross necropsy observation (M. tuberculosis; Group 3, ND-012101 + ABT): Slightly enlarged
- Spleen, gross necropsy observation (M. tuberculosis; Group 6, ND-012101 alone): Slightly enlarged; also recorded: normal
- Lung Log10 CFU ± SEM (M. tuberculosis; ND-012101 (100) + ABT (100)): 5.62 ± 0.06 Log10 CFU
- Spleen Log10 CFU ± SEM (M. tuberculosis; ND-012101 (100) + ABT (100)): 4.80 ± 0.14 Log10 CFU
- Lung Log10 CFU ± SEM (M. tuberculosis; ND-012101 (200)): 5.93 ± 0.08 Log10 CFU
- Spleen Log10 CFU ± SEM (M. tuberculosis; ND-012101 (200)): 5.02 ± 0.08 Log10 CFU
- Log reduction vs CTL (Lg) (M. tuberculosis; ND-012101 (100) + ABT (100)): 0.17
- Log reduction vs CTL (Lg) (M. tuberculosis; ND-012101 (200)): −0.14
- Log reduction vs CTL (Sp) (M. tuberculosis; ND-012101 (100) + ABT (100)): 0.20
- Log reduction vs CTL (Sp) (M. tuberculosis; ND-012101 (200)): −0.02
